# Laboratory results reported in BindingDB's records for doi:10.1021/acsmedchemlett.9b00381 (Dana-Farber Cancer Institute, 2019).
# Experiments:
# [1] = Inhibition of EGFR L858R mutant (unknown origin) expressed in mouse Ba/F3 cells assessed as reduction in cell growth incubated for 72 hrs in presence of 1 ug/ml Cetuximab by celltiter-glo luminescent cell viability assay
# [2] = Inhibition of EGFR triple T790M/L858R/C797S mutant (unknown origin) expressed in mouse Ba/F3 cells assessed as reduction in cell growth incubated for 72 hrs in presence of 1 ug/ml Cetuximab by celltiter-glo luminescent cell viability assay
# [3] = Inhibition of EGFR (unknown origin) expressed in mouse Ba/F3 cells assessed as reduction in cell growth incubated for 72 hrs in presence of 1 ug/ml Cetuximab by celltiter-glo luminescent cell viability assay
# [4] = Inhibition of EGFR double T790M/L858R mutant (unknown origin) expressed in mouse Ba/F3 cells assessed as reduction in cell growth incubated for 72 hrs in presence of 1 ug/ml Cetuximab by celltiter-glo luminescent cell viability assay
Compound,IC50 [1],IC50 [2],IC50 [3],IC50 [4]
CN1CCN(c2ccc(Oc3ccc4c(c3)C(=O)N(Cc3ccccc3)c3cc(F)ccc3N4)cc2)CC1,2700 nM,200 nM,3200 nM,360 nM
O=C1c2cc(-c3ccc(N4CCNCC4)cc3)ccc2Nc2ccc(F)cc2N1Cc1ccccc1,3700 nM,930 nM,4100 nM,770 nM
